Reference: patent EP3940071A1, “5-METHYLFOLATE PRODUCING MICROORGANISM” (Chifeng Pharmaceutical Co., Ltd, priority 2020, dated 2022)

Test: Stability of folic acid in 0.1 M NaOH (HPLC)
Type: physicochemical
Settings: 25 °C, protected from light, 144 hours (6 days)

- decomposition of folic acid: did not undergo to decomposition
Compound: Nc1nc2ncc(CNc3ccc(C(=O)N[C@@H](CCC(=O)O)C(=O)O)cc3)nc2c(=O)[nH]1 [folic acid, pteroyl-L-glutamic acid]
